Data as given in US11267811B2, “Small molecule inhibitors of galectin-3” (BRISTOL-MYERS SQUIBB COMPANY, priority 2017, dated 2022).

Molecular target: His-tagged recombinant human Gal-3 (hGal-3) (Homo sapiens (Human), UniProt P17931)
Assay: Gal-3 HTRF assay (His-tagged hGal-3 binding to B-ASF);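 note: compounds preincubated 30 min with hGal-3, then 1 h with B-ASF, detection via terbium anti-His antibody and streptavidin d2. Control with B-ASF counts as full signal, omitting B-ASF as background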
Conditions: HTRF, hGal-3 15 nM, B-ASF 15 nM; read-out: hGal-3 IC50

His-tagged recombinant human Gal-3 (hGal-3), sequence (P17931 whole entry): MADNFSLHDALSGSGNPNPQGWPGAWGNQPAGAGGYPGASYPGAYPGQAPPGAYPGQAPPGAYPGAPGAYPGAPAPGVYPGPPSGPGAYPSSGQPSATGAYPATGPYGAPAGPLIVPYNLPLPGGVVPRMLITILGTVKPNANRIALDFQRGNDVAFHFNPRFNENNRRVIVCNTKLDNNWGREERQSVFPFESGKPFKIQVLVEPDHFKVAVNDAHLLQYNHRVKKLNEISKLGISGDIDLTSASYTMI

Compared with Cc1nc2ccc(-n3ncnc3[C@@H]3O[C@H](CO)[C@H](O)[C@H](n4cc(C(=O)NC5CCCCC5)nn4)[C@H]3O)cc2s1 [Example 198], Cc1nc2ccc(-n3ncnc3[C@@H]3O[C@H](CO)[C@H](O)[C@H](n4cc(C(=O)NC5CCC5)nn4)[C@H]3O)cc2s1 [Example 199] is 2.8-fold lower in IC50: 1.02 µM for the first, 0.36 µM for the second.

Compared with Cc1nc2ccc(-n3ncnc3[C@@H]3O[C@H](CO)[C@H](O)[C@H](n4cc(C(=O)NCc5cccc(F)c5)nn4)[C@H]3O)cc2s1 [Example 200], Cc1nc2ccc(-n3ncnc3[C@@H]3O[C@H](CO)[C@H](O)[C@H](n4cc(-c5ccc(F)cc5)nn4)[C@H]3O)cc2s1 [Example 224, (2R,3R,4R,5R,6S)-4-(4-(4-fluorophenyl)-1H-1,2,3-triazol-1-yl)-2-(hydroxymethyl)-6-(1-(2-methylbenzo[d]thiazol-6-yl)-1H-1,2,4-triazol-5-yl)tetrahydro-2H-pyran-3,5-diol] is 2.6-fold lower in IC50: 0.86 µM for the first, 0.33 µM for the second. The second is the more potent here.

First: Cc1nc2ccc(-n3ncnc3[C@@H]3O[C@H](CO)[C@H](O)[C@H](n4cc(-c5ccc(C6CC6)c(F)c5)nn4)[C@H]3O)cc2s1 [Example 201, (2R,3R,4R,5R,6S)-4-(4-(4-cyclopropyl-3-fluorophenyl)-1H-1,2,3-triazol-1-yl)-2-(hydroxymethyl)-6-(1-(2-methylbenzo[d]thiazol-6-yl)-1H-1,2,4-triazol-5-yl)tetrahydro-2H-pyran-3,5-diol]
Second: COc1ccc(-c2cn([C@H]3[C@@H](O)[C@@H](CO)O[C@@H](c4ncnn4-c4ccc5nc(C)sc5c4)[C@@H]3O)nn2)cc1F [Example 223]
The IC50 of the first is 1.7-fold higher: 0.35 µM for the first, 0.2 µM for the second.

First: Cc1nc2ccc(-n3ncnc3[C@@H]3O[C@H](CO)[C@H](O)[C@H](n4cc(-c5cc(F)c(Cl)c(Cl)c5)nn4)[C@H]3O)cc2s1 [Example 221, (2R,3R,4R,5R,6S)-4-(4-(3,4-dichloro-5-fluorophenyl)-1H-1,2,3-triazol-1-yl)-2-(hydroxymethyl)-6-(1-(2-methylbenzo[d]thiazol-6-yl)-1H-1,2,4-triazol-5-yl)tetrahydro-2H-pyran-3,5-diol]
Second: Cc1nc2ccc(-n3ncnc3[C@@H]3O[C@H](CO)[C@H](O)[C@H](n4cc(-c5cc(F)c(Cl)cc5F)nn4)[C@H]3O)cc2s1 [Example 222]
The IC50 of the first is 4.8-fold lower: 0.05 µM for the first, 0.24 µM for the second.

First: Cc1nc2ccc(-n3ncnc3[C@@H]3O[C@H](CO)[C@H](O)[C@H](n4cc(-c5cc(F)c(N6CCC(O)CC6)c(F)c5)nn4)[C@H]3O)cc2s1 [Example 241, (2R,3R,4R,5R,6S)-4-(4-(3,5-difluoro-4-(4-hydroxypiperidin-1-yl)phenyl)-1H-1,2,3-triazol-1-yl)-2-(hydroxymethyl)-6-(1-(2-methylbenzo[d]thiazol-6-yl)-1H-1,2,4-triazol-5-yl)tetrahydro-2H-pyran-3,5-diol]
Second: Cc1nc2ccc(-n3ncnc3[C@@H]3O[C@H](CO)[C@H](O)[C@H](n4cc(-c5cc(F)c(N6CC(O)C6)c(F)c5)nn4)[C@H]3O)cc2s1 [Example 242]
The IC50 of the first is 2.2-fold higher: 0.13 µM for the first, 0.06 µM for the second.

Cc1nc2ccc(-n3ncnc3[C@@H]3O[C@H](CO)[C@H](O)[C@H](n4cc(-c5cc(F)c(N6CCOCC6)c(F)c5)nn4)[C@H]3O)cc2s1 [Example 243] and Cc1nc([C@@H]2O[C@H](CO)[C@H](O)[C@H](n3cc(-c4ccc(Cl)c(F)c4)nn3)[C@H]2O)n(-c2cccc(Cl)c2)n1 [Example 244, (2S,3R,4R,5R,6R)-4-(4-(4-chloro-3-fluorophenyl)-1H-1,2,3-triazol-1-yl)-2-(1-(3-chlorophenyl)-3-methyl-1H-1,2,4-triazol-5-yl)-6-(hydroxymethyl)tetrahydro-2H-pyran-3,5-diol] are the same in IC50: 0.08 µM for the first, 0.08 µM for the second.

Same assay, conditions: read-out: hGal3 IC50

Compared with Cc1nc2ccc(-n3ncnc3[C@@H]3O[C@H](CO)[C@H](O)[C@H](n4cc(-c5ccc(N)c(F)c5)nn4)[C@H]3O)cc2s1 [Example 202], Cc1nc2ccc(-n3ncnc3[C@@H]3O[C@H](CO)[C@H](O)[C@H](n4cc(-c5ccc(C)c(F)c5)nn4)[C@H]3O)cc2s1 [Example 212] is 7.3-fold lower in IC50: 0.44 µM for the first, 0.06 µM for the second.

Going from Cc1nc2ccc(-n3ncnc3[C@@H]3O[C@H](CO)[C@H](O)[C@H](n4cc(-c5ccc(NS(C)(=O)=O)c(F)c5)nn4)[C@H]3O)cc2s1 [Example 203] to CNc1ccc(-c2cn([C@H]3[C@@H](O)[C@@H](CO)O[C@@H](c4ncnn4-c4ccc5nc(C)sc5c4)[C@@H]3O)nn2)cc1F [Example 207], the IC50 falls from 2.12 µM to 0.74 µM (2.9-fold).

Compared with CC(=O)Nc1ccc(-c2cn([C@H]3[C@@H](O)[C@@H](CO)O[C@@H](c4ncnn4-c4ccc5nc(C)sc5c4)[C@@H]3O)nn2)cc1F [Example 204], COC(=O)Nc1ccc(-c2cn([C@H]3[C@@H](O)[C@@H](CO)O[C@@H](c4ncnn4-c4ccc5nc(C)sc5c4)[C@@H]3O)nn2)cc1F [Example 205] is 4.5-fold lower in IC50: 5 µM for the first, 1.11 µM for the second.

Compared with Cc1nc2ccc(-n3ncnc3[C@@H]3O[C@H](CO)[C@H](O)[C@H](n4cc(-c5ccc(N(C)C)c(F)c5)nn4)[C@H]3O)cc2s1 [Example 206], Cc1nc2ccc(-n3ncnc3[C@@H]3O[C@H](CO)[C@H](O)[C@H](n4cc(-c5ccc(N(C)S(C)(=O)=O)c(F)c5)nn4)[C@H]3O)cc2s1 [Example 208] is 2.5-fold higher in IC50: 1.54 µM for the first, 3.82 µM for the second. The first is the more potent here.

Going from Cc1nc2ccc(-n3ncnc3[C@@H]3O[C@H](CO)[C@H](O)[C@H](n4cc(-c5ccc(C(F)(F)F)c(F)c5)nn4)[C@H]3O)cc2s1 [Example 209] to Cc1nc2ccc(-n3ncnc3[C@@H]3O[C@H](CO)[C@H](O)[C@H](n4cc(-c5ccc(OC(F)(F)F)c(F)c5)nn4)[C@H]3O)cc2s1 [Example 229], the IC50 rises from 0.08 µM to 0.98 µM (12-fold). The first is the more potent here.

Going from Cc1nc2ccc(-n3ncnc3[C@@H]3O[C@H](CO)[C@H](O)[C@H](n4cc(-c5cc(F)c(Cl)c(F)c5)nn4)[C@H]3O)cc2s1 [Example 210] to Cc1nc2ccc(-n3ncnc3[C@@H]3O[C@H](CO)[C@H](O)[C@H](n4cc(-c5cc(F)c(Br)c(F)c5)nn4)[C@H]3O)cc2s1 [Example 226], the IC50 rises from 0.04 µM to 0.07 µM (1.8-fold).

Cc1nc2ccc(-n3ncnc3[C@@H]3O[C@H](CO)[C@H](O)[C@H](n4cc(-c5ccc(Cl)c(Cl)c5)nn4)[C@H]3O)cc2s1 [Example 211] and Cc1nc2ccc(-n3ncnc3[C@@H]3O[C@H](CO)[C@H](O)[C@H](n4cc(-c5ccc(Cl)c(F)c5)nn4)[C@H]3O)cc2s1 [Example 217] are within 1.5-fold of each other in IC50: 0.06 µM for the first, 0.07 µM for the second.

First: Cc1nc2ccc(-n3ncnc3[C@@H]3O[C@H](CO)[C@H](O)[C@H](n4cc(-c5cccc(F)c5)nn4)[C@H]3O)cc2s1 [Example 213]
Second: Cc1nc2ccc(-n3ncnc3[C@@H]3O[C@H](CO)[C@H](O)[C@H](n4cc(-c5ccc(Br)c(F)c5)nn4)[C@H]3O)cc2s1 [Example 216]
The IC50 of the first is 2.4-fold higher: 0.12 µM for the first, 0.05 µM for the second. The second is the more potent here.

Going from Cc1nc2ccc(-n3ncnc3[C@@H]3O[C@H](CO)[C@H](O)[C@H](n4cc(-c5ccccc5)nn4)[C@H]3O)cc2s1 [Example 214] to Cc1nc2ccc(-n3ncnc3[C@@H]3O[C@H](CO)[C@H](O)[C@H](n4cc(-c5ccc(Br)cc5)nn4)[C@H]3O)cc2s1 [Example 225], the IC50 falls from 0.6 µM to 0.21 µM (2.9-fold). The second is the more potent here.

Cc1nc2ccc(-n3ncnc3[C@@H]3O[C@H](CO)[C@H](O)[C@H](n4cc(-c5cc(F)cc(F)c5)nn4)[C@H]3O)cc2s1 [Example 215] and Cc1nc2ccc(-n3ncnc3[C@@H]3O[C@H](CO)[C@H](O)[C@H](n4cc(-c5cc(F)cc(Cl)c5)nn4)[C@H]3O)cc2s1 [Example 240] are within 1.5-fold of each other in IC50: 0.14 µM for the first, 0.16 µM for the second.

Going from Cc1nc2ccc(-n3ncnc3[C@@H]3O[C@H](CO)[C@H](O)[C@H](n4cc(-c5cc(N)c(F)c(F)c5)nn4)[C@H]3O)cc2s1 [Example 218] to COc1cc(-c2cn([C@H]3[C@@H](O)[C@@H](CO)O[C@@H](c4ncnn4-c4ccc5nc(C)sc5c4)[C@@H]3O)nn2)cc(F)c1F [Example 232], the IC50 rises from 0.02 µM to 0.04 µM (2-fold). The first is the more potent here.

CC(=O)Nc1cc(-c2cn([C@H]3[C@@H](O)[C@@H](CO)O[C@@H](c4ncnn4-c4ccc5nc(C)sc5c4)[C@@H]3O)nn2)cc(F)c1F [Example 219] and CCOC(=O)Nc1cc(-c2cn([C@H]3[C@@H](O)[C@@H](CO)O[C@@H](c4ncnn4-c4ccc5nc(C)sc5c4)[C@@H]3O)nn2)cc(F)c1F [Example 220] are the same in IC50: 0.07 µM for the first, 0.07 µM for the second.

Cc1nc2cc(-c3cn([C@H]4[C@@H](O)[C@@H](CO)O[C@@H](c5ncnn5-c5ccc6nc(C)sc6c5)[C@@H]4O)nn3)cc(F)c2o1 [Example 227] and Cc1nc2ccc(-n3ncnc3[C@@H]3O[C@H](CO)[C@H](O)[C@H](n4cc(-c5cc(C)c(C#N)c(F)c5)nn4)[C@H]3O)cc2s1 [Example 236] are within 1.5-fold of each other in IC50: 0.25 µM for the first, 0.24 µM for the second.

Cc1nc2ccc(-n3ncnc3[C@@H]3O[C@H](CO)[C@H](O)[C@H](n4cc(-c5cc(F)cc(C(F)(F)F)c5)nn4)[C@H]3O)cc2s1 [Example 228] and Cc1nc2ccc(-n3ncnc3[C@@H]3O[C@H](CO)[C@H](O)[C@H](n4cc(-c5ccc(C#N)c(F)c5)nn4)[C@H]3O)cc2s1 [Example 230] are within 1.5-fold of each other in IC50: 0.42 µM for the first, 0.45 µM for the second.

Compared with Cc1nc2ccc(-n3ncnc3[C@@H]3O[C@H](CO)[C@H](O)[C@H](n4cc(-c5ccc(CC#N)c(F)c5)nn4)[C@H]3O)cc2s1 [Example 231], Cc1nc2ccc(-n3ncnc3[C@@H]3O[C@H](CO)[C@H](O)[C@H](n4cc(-c5ccc(Cl)cc5)nn4)[C@H]3O)cc2s1 [Example 237] is 1.9-fold lower in IC50: 0.39 µM for the first, 0.21 µM for the second. The second is the more potent here.

Compared with COc1cc(F)c(F)cc1-c1cn([C@H]2[C@@H](O)[C@@H](CO)O[C@@H](c3ncnn3-c3ccc4nc(C)sc4c3)[C@@H]2O)nn1 [Example 233], Cc1nc2ccc(-n3ncnc3[C@@H]3O[C@H](CO)[C@H](O)[C@H](n4cc(-c5cc(F)c(C#N)cc5C)nn4)[C@H]3O)cc2s1 [Example 235] is 1.6-fold higher in IC50: 0.24 µM for the first, 0.39 µM for the second. The first is the more potent here.

Going from Cc1nc([C@@H]2O[C@H](CO)[C@H](O)[C@H](n3cc(-c4ccc(Cl)c(F)c4)nn3)[C@H]2O)n(-c2cc(Cl)ccc2Cl)n1 [Example 246] to Cc1nc([C@@H]2O[C@H](CO)[C@H](O)[C@H](n3cc(-c4ccc(Cl)c(F)c4)nn3)[C@H]2O)n(-c2cc(Cl)ccc2F)n1 [Example 249], the IC50 rises from 0.03 µM to 0.09 µM (3-fold).

Going from Cc1nc([C@@H]2O[C@H](CO)[C@H](O)[C@H](n3cc(-c4ccc(Cl)c(F)c4)nn3)[C@H]2O)n(-c2ccccc2)n1 [Example 247] to COc1ccc(Cl)cc1-n1nc(C)nc1[C@@H]1O[C@H](CO)[C@H](O)[C@H](n2cc(-c3ccc(Cl)c(F)c3)nn2)[C@H]1O [Example 251], the IC50 falls from 0.45 µM to 0.08 µM (5.6-fold).
